Test [1] deals with T1, human CB1 receptor (Homo sapiens, UniProt P21554).
T1 construct: purchased Perkin Elmer RBHCB1M
Nature of the test: Study on the human CB1 receptor, [3H]CP55,940 displacement on recombinant membranes. The format is binding. The conditions noted are these: 10 μM test substance; 1 nM [3H]CP55,940; human recombinant cell membranes. The protocol:
V. Functional Study on the Human CB1 Receptor
50 mM TRIS (from Fluka, Cat. No. 93349); 2.5 mM EDTA (from Fluka Cat. No. 03680); 5 mM MgCl2 (from Merck, Cat. No. 1.05833); 0.5 mg/ml BSA (from Sigma Cat. No. A-2153)
The membranes (RBHCB1M, from Perkin Elmer (human recombinant cell membranes)) were supplied in aliquots of 1 ml each in dry ice and stored at −80° C. The protein concentration of the batches was around 6 mg/ml. For the test, in each case 1 ml was thawed rapidly and diluted with 7 ml of incubation buffer (1:8). 20 μl of this dilution were used in the test. This corresponded to a protein content of approx. 15 μg in the batch.
MTP from Costar® of the “U type” (assay MTP; Cat. No. 3794) was used. The pipetting sequence is reproduced in Table 1 below.
After the pipetting operation had ended, a lid was placed on the MTP and the incubation was effected at 25° C. for 90 min.
Subsequently, the samples were removed by suction with the aid of a Brandel cell harvester (model MPXRI-96T) through a GF/B Unifilter MTP (from Packard, Cat. No. 6005177) presoftened with 0.05% PEI. The samples were washed twice with 200 ml of ice-cooled incubation buffer per 96-well MTP. Thereafter, the plate was dried in a drying cabinet +60° C. for 1 h. […] After a wait time of 1 h, the plate was analyzed on a “Trilux” from Wallac.

Test [2] concerns the target T2, human CB2 receptor (Homo sapiens, UniProt P34972).
T2 construct: expressed in transfected cells; host or cells: HEK-293EBNA cells (membranes)
Nature of the test: Affinity for cannabinoid receptor CB2, [3H]-CP 55,940 displacement on HEK-293EBNA membranes. The conditions noted are these: 10 μM test substance; 0.33 nM [3H]-CP 55,940; percent inhibition of specific binding. The source says: VI. Determination of the Affinity for the Cannabinoid Receptor CB2 (CB2 Receptor):
To determine the affinity of the inventive compounds for the cannabinoid receptor, membranes from human recombinant HEK-293EBNA cells were used, which had been transfected stably with the human CB2 receptor. The radioligand used was tritium-labeled 5-(1,1-dimethylheptyl)-2-(5-hydroxypropyl)cyclohexyl)-1-alpha,2-beta,5-alpha)phenol ([3]H—CP 55,940 with 103.4 Ci/mmol, 1 mCi/ml). The determination was effected in a test buffer composed of 50 mM Tris-HCl, 2.5 mM EDTA, 5 mM MgCl2 and 1.0 mg/ml of fatty acid-free BSA. The test substances were each dissolved in DMSO.
The affinity of the inventive compounds for the CB2 receptor is determined by their ability to displace [3]H—CP 55,940 from CB2 receptors in membranes from HEK-293EBNA cells. To this end, in each case 8 μg of the membranes (20 μl of a solution from membranes in a concentration of 400 μg/ml) are incubated in wells on a microtiter plate with a 0.33 nM solution of ^[3]H-CP […] (120 Ci/mmol) in a total volume of test buffer of 200 μl at 30° C. for 90 minutes.
Subsequently, either the test substances or WIN 55212-2 to determine the unspecific binding, in each case dissolved in DMSO, are added to the wells so as to result in each case in a concentration of the corresponding substances of 10 μM.
Incubation at 30° C. is continued for a further 40 minutes. The binding reaction was ended by rapid filtration through GF/C filter paper which had been treated with 0.05% PEI using a Brandel cell harvester with 96 wells. The filters are washed nine times with 0.5 ml of ice-cooled washing buffer ([…] Tris-HCl, 5 mM MgCl2, 2.5 mM EDTA, 2% BSA, pH 7.4), air-dried and placed in scintillation fluid, and the radioactivity is determined with the aid of a scintillation counter.
The percentage displacement of the radioactive ligand ^[3]H-CP 55,940 from its binding to the CB2 receptor is reported as percent inhibition of the specific binding.

Test [3] addresses T3, vanilloid receptor (VR1) (Homo sapiens, UniProt Q8NER1).
T3 construct: expressed in transfected cells; host or cells: CHO K1 cells (ECACC)
Nature of the test: Functional study on vanilloid receptor (VR1), FLIPR Ca2+ assay in VR1-transfected CHO K1 cells. The format is cell-based. The settings on record: test substance 10 μM; CHO K1 cells transfected with VR1; suppression of Ca2+ current after 100 nM capsaicin; read-out: VR1 (human) (% inhibition compared to 10 μM CP). The source says: II. Functional Studies on the Vanilloid Receptor (VR1)
The agonistic or antagonistic action of the substances to be tested on vanilloid receptor (VR1) can also be determined with the assay which follows. In this assay, the Ca^2+ current through the channel is quantified with the aid of a Ca^2+-sensitive dye (Fluo-4 type, Molecular Probes, Europe BV, Leiden, the Netherlands) in a fluorescent imaging plate reader (FLIPR, Molecular Devices, Sunnyvale, USA).
Chinese hamster ovary cells (CHO K1 cells, European Collection of Cell Cultures (ECACC) Great Britain) are transfected stably with the VR1 gene. For functional studies, these cells are plated out onto poly-D-lysine-coated black 96-well plates with a clear bottom (BD Biosciences, Heidelberg, Germany) in a density of 25 000 cells/well. The cells are incubated overnight at 37° C. and 5% CO2 in a culture medium (Ham's Nutrient Mixture F12, 10% by volume of FCS (fetal calf serum), 18 μg/ml of L-proline). The next day, the cells are incubated with Fluo-4 (Fluo-4 2 μM, Pluronic F127 0.01% by volume, Molecular Probes in HBSS (Hank's buffered saline solution), Gibco Invitrogen GmbH, Karlsruhe, Germany) at 37° C. for 30 minutes. Subsequently, the plates are washed 3 times with HBSS buffer and, after a further incubation of 15 minutes at room temperature, used for Ca^2+ measurement in FLIPR. The Ca^2+-dependent fluorescence is measured before and after addition of the substances to be studied (wavelength λex=488 nm, λem=540 nm). The quantification is effected by measuring the highest fluorescence intensity (FC, fluorescence counts) over the time.
The FLIPR protocol consists of 2 substance additions. First, the substances to be tested (10 μM) are pipetted onto the cells and the Ca^2+ current is compared with the control (capsaicin 10 μM) (% activation based on the Ca^2+ signal after addition of 10 μM capsaicin). After incubation for 5 minutes, 100 nM capsaicin is applied and the current of Ca^2+ is likewise determined.
Desensitizing agonists and antagonists led to a suppression of the Ca^2+ current. % inhibition is calculated compared to the maximum achievable inhibition with 10 μM capsazepine.

For test [4], the target named is T4, vanilloid receptor 1 (VR1/TRPV1) (Rattus norvegicus, UniProt O35433).
T4 construct: The spinal column is removed from beheaded rats; from tissue; host or cells: primary cells from rat dorsal root ganglia
T4 sequence (O35433 whole entry): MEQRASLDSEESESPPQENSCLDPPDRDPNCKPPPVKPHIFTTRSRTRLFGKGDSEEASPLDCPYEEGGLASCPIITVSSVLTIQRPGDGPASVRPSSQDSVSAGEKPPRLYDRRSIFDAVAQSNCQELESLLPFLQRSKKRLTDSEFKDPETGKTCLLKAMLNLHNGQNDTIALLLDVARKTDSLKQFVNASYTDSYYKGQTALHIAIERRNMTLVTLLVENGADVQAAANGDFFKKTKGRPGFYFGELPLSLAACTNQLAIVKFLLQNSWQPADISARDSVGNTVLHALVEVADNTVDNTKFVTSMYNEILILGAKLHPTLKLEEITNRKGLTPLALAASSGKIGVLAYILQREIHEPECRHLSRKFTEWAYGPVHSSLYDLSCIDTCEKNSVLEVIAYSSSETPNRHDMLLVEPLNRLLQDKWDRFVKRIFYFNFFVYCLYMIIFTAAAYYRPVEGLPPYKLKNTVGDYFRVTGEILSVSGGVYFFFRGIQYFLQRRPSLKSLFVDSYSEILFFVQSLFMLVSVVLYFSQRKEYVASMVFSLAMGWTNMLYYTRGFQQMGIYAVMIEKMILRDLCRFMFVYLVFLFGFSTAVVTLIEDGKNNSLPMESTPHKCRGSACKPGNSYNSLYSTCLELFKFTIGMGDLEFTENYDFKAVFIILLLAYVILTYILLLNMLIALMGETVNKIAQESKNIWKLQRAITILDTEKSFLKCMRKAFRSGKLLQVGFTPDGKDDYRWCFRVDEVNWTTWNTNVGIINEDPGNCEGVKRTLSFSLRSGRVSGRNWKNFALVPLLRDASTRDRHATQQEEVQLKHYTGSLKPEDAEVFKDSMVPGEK
Nature of the test: Functional study on vanilloid receptor 1 (VR1/TRPV1), FLIPR Ca2+ assay in rat dorsal root ganglia cells. The format is cell-based. The conditions noted are these: test compound 10 μM; rat DRG cells; suppression of Ca2+ current after 100 nM capsaicin; read-out: VR1 (rat) (% inhibition compared to 10 μM CP). Here is the method:
Preference may likewise be given to inventive compounds which, in the FLIPR assay, in a concentration of 10 μM, have an inhibition of the Ca^2+ ion current in dorsal root ganglia of rats of at least 10%, preferably of at least 30%, more preferably of at least 50%, even more preferably of at least 70%, even more preferably of at least 90%, compared to the maximum achievable inhibition of the Ca^2+ ion current with […] in a concentration of 10 μM.
In the FLIPR assay, the Ca^2+ current is quantified with the aid of a Ca^2+-sensitive dye (Fluo-4 type, Molecular Probes Europe BV, Leiden, the Netherlands) in the fluorescent imaging plate reader (FLIPR, Molecular Devices, Sunnyvale, USA), as described below.
I. Functional Study on the Vanilloid Receptor 1 (VR1/TRPV1 Receptor)
The agonistic or antagonistic action of the substances to be studied on the vanilloid receptor 1 (VR1/TRPV1) of the rat species can be determined with the following assay. In this assay, the Ca^2+ current through the receptor channel is quantified with the aid of a Ca^2+-sensitive dye (Fluo-4 type, Molecular Probes Europe BV, Leiden the Netherlands) in a fluorescent imaging plate reader (FLIPR, Molecular Devices, Sunnyvale, USA).
Cell culture plate: poly-D-lysine-coated, black 96-hole plates with a clear bottom (96 well black/clear plate, BD Biosciences, Heidelberg, Germany) are additionally coated with laminin (Gibco Invitrogen GmbH, Karlsruhe, Germany) by diluting laminin to a concentration of 100 μg/ml with PBS (Ca—Mg-free PBS, Gibco Invitrogen GmbH, Karlsruhe, Germany). Aliquots having a concentration of 100 μg/ml of laminin are withdrawn and stored at −20° C. The aliquots are diluted with PBS in a ratio of 1:10 to 10 μg/ml of laminin and in each case 50 μl of the solution are pipetted into a well of the cell culture plate. The cell culture plates are incubated at 37° C. for at least two hours, the supernatant solution is removed by suction and the wells are each washed twice with PBS. The coated cell culture plates are stored with supernatant PBS which is not removed until directly before the application of the cells.
The spinal column is removed from beheaded rats and placed directly into cold HBSS buffer (Hank's buffered saline solution, Gibco Invitrogen GmbH, Karlsruhe, Germany), i.e. placed in an ice bath, which has been admixed with 1% by volume of an AA solution (antibiotic/antimycotic solution, PAA, Pasching, Austria). The spinal column is severed longitudinally and removed from the spinal canal together with fasciae. Subsequently, the dorsal root ganglia (DRGs) are removed and in turn stored in cold HBSS buffer admixed with 1% by volume of an AA solution. The DRGs freed completely of blood residues and spinal nerves are in each case transferred to 500 μl of cold type 2 collagenase (PAA, Pasching, Austria) and incubated at 37° C. for 35 minutes. After addition of 2.5% by volume of trypsin (PAA, Pasching, Austria), incubation is continued at 37° C. for a further 10 minutes. After complete incubation, the enzyme solution is cautiously pipetted off and the remaining DRGs are each admixed with 500 μl of complete medium.
The DRGs are each suspended repeatedly, drawn through cannulas No. 1, No. 12 and No. 16 by means of a syringe and transferred to 50 ml Falcon tubes which are made up to 15 ml with complete medium. The contents of each Falcon tube are in each case filtered through a 70 μm Falcon filter insert and centrifuged at 1200 revolutions and room temperature for 10 minutes. The resulting pellet is in each case taken up in 250 μl of complete medium and the cell count is determined.
The number of cells in the suspension is adjusted to 3 times 10^5 per ml and in each case 150 μl of this suspension are added to one well of the cell culture plates coated as described above. In the incubator, the plates are left to stand at 37° C., 5% by volume of CO2 and 95% relative air humidity for two to three days. […]

T2 sequence (P34972 whole entry): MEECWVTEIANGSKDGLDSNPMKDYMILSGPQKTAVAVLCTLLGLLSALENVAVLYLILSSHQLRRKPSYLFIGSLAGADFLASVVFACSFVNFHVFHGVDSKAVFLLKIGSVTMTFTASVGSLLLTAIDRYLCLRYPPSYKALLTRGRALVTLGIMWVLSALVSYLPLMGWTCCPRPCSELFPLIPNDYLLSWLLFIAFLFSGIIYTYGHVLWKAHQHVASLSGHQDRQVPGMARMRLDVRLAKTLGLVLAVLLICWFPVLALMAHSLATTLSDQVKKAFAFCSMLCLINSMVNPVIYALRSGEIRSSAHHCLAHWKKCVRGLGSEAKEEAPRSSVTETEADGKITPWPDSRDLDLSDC
T1 sequence (P21554 whole entry): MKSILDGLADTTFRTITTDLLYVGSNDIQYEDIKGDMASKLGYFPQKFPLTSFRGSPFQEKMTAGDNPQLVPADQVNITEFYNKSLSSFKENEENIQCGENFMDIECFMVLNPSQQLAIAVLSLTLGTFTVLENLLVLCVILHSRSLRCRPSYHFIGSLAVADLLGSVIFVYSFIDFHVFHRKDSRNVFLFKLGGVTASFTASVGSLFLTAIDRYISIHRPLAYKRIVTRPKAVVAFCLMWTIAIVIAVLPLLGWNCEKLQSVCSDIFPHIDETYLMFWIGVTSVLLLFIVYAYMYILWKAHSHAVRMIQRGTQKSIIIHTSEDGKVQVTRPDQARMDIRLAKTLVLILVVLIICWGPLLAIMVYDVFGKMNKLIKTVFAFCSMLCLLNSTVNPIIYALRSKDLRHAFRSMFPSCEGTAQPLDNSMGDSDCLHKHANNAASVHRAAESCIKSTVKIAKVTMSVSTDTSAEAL
T3 sequence (Q8NER1 whole entry): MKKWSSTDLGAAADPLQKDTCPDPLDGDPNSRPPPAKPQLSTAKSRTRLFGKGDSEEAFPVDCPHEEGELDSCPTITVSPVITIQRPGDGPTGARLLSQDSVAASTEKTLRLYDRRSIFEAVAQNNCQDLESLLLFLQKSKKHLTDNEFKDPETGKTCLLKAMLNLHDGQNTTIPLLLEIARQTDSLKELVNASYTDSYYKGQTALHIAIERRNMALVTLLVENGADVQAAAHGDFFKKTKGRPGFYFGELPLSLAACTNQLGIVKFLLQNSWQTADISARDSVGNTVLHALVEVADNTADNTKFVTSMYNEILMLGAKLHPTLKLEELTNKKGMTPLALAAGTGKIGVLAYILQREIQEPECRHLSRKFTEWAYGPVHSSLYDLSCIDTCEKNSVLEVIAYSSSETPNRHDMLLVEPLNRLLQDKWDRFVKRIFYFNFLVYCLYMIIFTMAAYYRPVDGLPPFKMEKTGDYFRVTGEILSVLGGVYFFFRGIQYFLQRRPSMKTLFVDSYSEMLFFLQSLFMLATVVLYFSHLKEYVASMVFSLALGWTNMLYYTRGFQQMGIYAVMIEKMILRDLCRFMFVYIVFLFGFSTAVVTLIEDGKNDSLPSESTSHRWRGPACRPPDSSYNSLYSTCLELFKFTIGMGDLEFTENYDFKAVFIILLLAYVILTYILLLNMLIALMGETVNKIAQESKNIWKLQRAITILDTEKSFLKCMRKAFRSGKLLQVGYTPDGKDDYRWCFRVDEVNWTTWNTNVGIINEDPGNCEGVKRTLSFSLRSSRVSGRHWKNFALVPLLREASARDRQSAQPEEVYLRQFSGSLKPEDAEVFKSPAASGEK

The inhibition is the share of the control response that was lost under treatment. Consider `O=C(Nc1ccccc1)OCC1(COC(=O)Nc2ccccc2)CCSc2ccccc2C1=O` [Example Compound 2, Phenylcarbamic acid 4-(phenylcarbamoyloxymethyl)-5-oxo-2,3,4,5-tetrahydro-benzo[b]thiepin-4-ylmethyl ester], for which the inhibition at 10 µM in test [1] was determined as 42%; in test [2], 74.6%.

As to `O=C(NC1CCCCC1)OCC1(COC(=O)NC2CCCCC2)CCCc2ccccc2C1=O` [Example Compound 8, Cyclohexylcarbamic acid 6-(cyclohexylcarbamoyloxymethyl)-5-oxo-6,7,8,9-tetrahydro-5H-benzocyclohepten-6-ylmethyl ester], the figures for the inhibition at 10 µM in test [1] and in test [2] were 47% and 76.2%, respectively.

As to `O=C(Nc1ccc(F)cc1F)OCC1(CO)CCSc2ccccc2C1=O` (stereo not shown) [Example Compound 20, (2,4-Difluorophenyl)carbamic acid 4-hydroxymethyl-5-oxo-2,3,4,5-tetrahydro-benzo[b]thiepin-4-ylmethyl ester], the inhibition at 10 µM in test [3] was found to be 21.8%; in test [4] it was 17.1%; in test [2] it was 41%.

(Values after patent US7858613B2, “Substituted benzo-condensed cycloheptanone derivatives and their use for producing drugs” (Gruenenthal GmbH, priority 2005, dated 2010).)
